From patent US20240368158A1, “KINASE MODULATORS, COMPOSITIONS COMPRISING THE KINASE MODULATOR, AND METHODS OF USING THE SAME” (BIOFRONT LTD, priority 2021, published 2024)
pIC50: −log10 of the molar value.

What was measured:
HPK1 = target: T1, HPK1 (Homo sapiens, UniProt Q92918); experiment: HPK1 enzyme inhibition assay (ADP-Glo); type: biochemical; conditions: MBP substrate, ATP
T1 construct: purchased Signal Chem M23-11G-10
T1 sequence (Q92918 1-346 limits assumed): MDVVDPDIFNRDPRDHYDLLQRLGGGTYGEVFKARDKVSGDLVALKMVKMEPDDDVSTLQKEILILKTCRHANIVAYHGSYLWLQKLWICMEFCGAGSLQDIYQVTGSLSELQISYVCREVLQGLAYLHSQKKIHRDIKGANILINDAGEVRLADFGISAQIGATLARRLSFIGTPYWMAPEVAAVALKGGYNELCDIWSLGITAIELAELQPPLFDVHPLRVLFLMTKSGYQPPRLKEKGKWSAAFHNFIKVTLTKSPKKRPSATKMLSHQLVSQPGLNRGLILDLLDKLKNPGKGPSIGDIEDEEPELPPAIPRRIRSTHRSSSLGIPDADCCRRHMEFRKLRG
Experimental: The compound was dissolved in 100% DMSO at the concentration of 10 mM. The HPK1 protein was purchased from Signal Chem (M23-11G-10). 2.5 μL per well of 2×HPK1 protein was added to assay plate containing the test compound, centrifuged at 1500 rpm for 1 minute, and then incubated at 25° C. for 60 minutes. MBP protein was purchased from Signal Chem (M42-51N) and ATP was purchased from Promega (V9102). The two were added 2.5 μL per well mixture of 2×MBP (0.2 ug/ul) and ATP (20 μM), centrifuged at 1500 rpm for 1 minute, then incubated at 25° C. for 60 minutes. Then added 5 μL of ADP-Glo from Promega (V9102) to the assay plate and depleted the unconsumed ATP for 60 minutes. Then centrifuged at 1500 rpm for 1 minute and incubated at 25° C. for 60 minutes. Finally, 10 μL of the kinase assay reagent from Promega (V9102) was added to the assay plate to convert ADP to ATP, centrifuged at 1500 rpm for 1 minute, incubate at 25° C. for 40 minutes. After 40 minutes incubation, the […] was determined. Based on the results, the IC50 value of the compound was calculated.

[1] = system: HPK1 p-SLP-76 in Jurkat cells; experiment: HPK1 p-SLP-76 inhibition assay in Jurkat cells (HTRF); type: cell-based; conditions: Homo sapiens, 4 h compound, anti-CD3 stimulation 20 min
Experimental: Before compound treatment, Jurkat cells were starved in PRMI-1640 medium supplemented with 0.5% FBS overnight. The cell density was adjusted to 1*10^7 cells/mL in assay medium (RPMI-1640 no phenol red with 0.5% FBS) and 16 uL cell suspension was transferred per well to a 384-well plate (Corning #3765). […] of test compound was prepared in assay medium and 4 uL was added per well to the 384-well plate. The plate was then incubated at 37° C., 5% CO2 for 4 h. Jurkat cells in 384-well plate were stimulated with anti-CD3 (BD Biosciences #555329, final conc. is 10 ug/mL) for 20 min at 37° C., 5% CO2 by adding 4 uL 6× antibody solution per well. Phospho-SLP76 HTRF kit was purchased from Cisbio (63ADK076PEH). 8 uL 4× Lysis Buffer was added to 384-well plate after anti-CD3 stimulation. The plate was centrifuged at 1,000 rpm for 1 min, shaken at 250 rpm for 60 min and centrifuged again at 1,000 rpm for 5 min. Afterwards the cell lysates were transferred to the assay plate (Greiner #784075) with 16 uL per well. 4 uL detection antibody mix per well prepared in Detection Buffer was added to the assay plate, followed by centrifugation at 1,000 rpm for 1 min and incubation at 25° C. overnight. The fluorescence emission at two different wavelengths (665 nm and 620 nm) was read by an HTRF compatible microplate reader and the IC50 value of the compound was calculated.

SMILES	pIC50 (HPK1)	pIC50 [1]
CCc1c[nH]c2ncc(-c3cccc(N4CCCC(CO)C4=O)c3)c(Cl)c12 (racemic) [Example 22, 1-(3-(4-chloro-3-ethyl-1H-pyrrolo[2,3-b]pyridin-5-yl)phenyl)-3-(hydroxymethyl)piperidin-2-one]	≥ 8.00	5.52 to 6.52
CCc1c[nH]c2ncc(-c3cccc(N4CCNCC4=O)c3)c(Cl)c12 [Example 1, 1-(3-(4-chloro-3-ethyl-1H-pyrrolo[2,3-b]pyridin-5-yl)phenyl)piperazin-2-one]	≥ 8.00	5.52 to 6.52
CC(C)(C)C#Cc1c[nH]c2ncc(-c3cccc(N4CCNCC4=O)c3)c(Cl)c12 [Example 3, 1-(3-(4-chloro-3-(3,3-dimethylbut-1-yn-1-yl)-1H-pyrrolo[2,3-b]pyridin-5-yl)phenyl) piperazin-2-one]	6.00 to 7.00	5.52 to 6.52
O=C1CNCCN1c1cccc(-c2cnc3[nH]cc(C4CC4)c3c2Cl)c1 [Example 4, 1-(3-(4-chloro-3-cyclopropyl-1H-pyrrolo[2,3-b]pyridin-5-yl)phenyl) piperazin-2-one]	≥ 8.00	5.52 to 6.52
O=C1CNCCN1c1cccc(-c2cnc3[nH]cc(C#CC4CC4)c3c2Cl)c1 [Example 5, 1-(3-(4-chloro-3-(cyclopropylethynyl)-1H-pyrrolo[2,3-b]pyridin-5-yl)phenyl) piperazin-2-one]	≥ 8.00	< 5.00
CCc1c[nH]c2ncc(-c3cccc(N4CCNCC4=O)n3)c(Cl)c12 [Example 9, 1-(6-(4-chloro-3-ethyl-1H-pyrrolo[2,3-b]pyridin-5-yl)pyridin-2-yl)piperazin-2-one]	≥ 8.00	5.52 to 6.52
CCc1c[nH]c2ncc(-c3csc(N4CCNCC4=O)n3)c(Cl)c12 [Example 10, 1-(4-(4-chloro-3-ethyl-1H-pyrrolo[2,3-b]pyridin-5-yl)thiazol-2-yl)piperazin-2-one]	7.00 to 8.00	5.52 to 6.52
O=C1CNCCN1c1cccc(-c2cnc3[nH]cc(CC(F)F)c3c2Cl)c1 [Example 12, 1-(3-(4-chloro-3-(2,2-difluoroethyl)-1H-pyrrolo[2,3-b]pyridin-5-yl)phenyl)piperazin-2-one]	≥ 8.00	5.52 to 6.52
CCc1c[nH]c2ncc(-c3cc(N4CCNCC4=O)ccc3F)c(Cl)c12 [Example 17, 1-(3-(4-chloro-3-ethyl-1H-pyrrolo[2,3-b]pyridin-5-yl)-4-fluorophenyl)piperazin-2-one]	7.00 to 8.00	5.52 to 6.52
O=C1CNCCN1c1cc(-c2cnc3[nH]cc(C4CC4)c3c2Cl)ccn1 [Example 18, 1-(4-(4-chloro-3-cyclopropyl-1H-pyrrolo[2,3-b]pyridin-5-yl)pyridin-2-yl)piperazin-2-one]	7.00 to 8.00	5.00 to 5.52
O=C1CNCCN1c1cncc(-c2cnc3[nH]cc(C4CC4)c3c2Cl)c1 [Example 19, 1-(5-(4-chloro-3-cyclopropyl-1H-pyrrolo[2,3-b]pyridin-5-yl)pyridin-3-yl)piperazin-2-one]	6.00 to 7.00	< 5.00
CCc1c[nH]c2ncc(-c3cc(N4CCNCC4=O)ccc3CO)cc12 [Example 21, 1-(3-(3-ethyl-1H-pyrrolo[2,3-b]pyridin-5-yl)-4-(hydroxymethyl)phenyl)piperazin-2-one]	< 6.00	< 5.00
CCc1c[nH]c2ncc(-c3cccc(N4CCC[C@@H](CO)C4=O)c3)c(Cl)c12 [Example 24, (S)-1-(3-(4-chloro-3-ethyl-1H-pyrrolo[2,3-b]pyridin-5-yl)phenyl)-3-(hydroxymethyl)piperidin-2-one]	≥ 8.00	5.52 to 6.52
CCc1c[nH]c2ncc(-c3cccc(N4CCN(C(=O)CN5CCOCC5)CC4=O)c3)c(Cl)c12 [Example 26, 1-(3-(4-chloro-3-ethyl-1H-pyrrolo[2,3-b]pyridin-5-yl)phenyl)-4-(2-morpholinoacetyl)piperazin-2-one]	≥ 8.00	5.52 to 6.52
CCc1c[nH]c2ncc(-c3cccc(N4CCN(C(=O)OC)CC4=O)c3)c(Cl)c12 [Example 27, Methyl 4-(3-(4-chloro-3-ethyl-1H-pyrrolo[2,3-b]pyridin-5-yl)phenyl)-3-oxopiperazine-1-carboxylate]	≥ 8.00	≥ 6.52
CCc1c[nH]c2ncc(-c3cccc(N4CCN(CCOC)CC4=O)c3)c(Cl)c12 [Example 28, 1-(3-(4-chloro-3-ethyl-1H-pyrrolo[2,3-b]pyridin-5-yl)phenyl)-4-(2-methoxyethyl)piperazin-2-one]	≥ 8.00	5.52 to 6.52
CN(C)CC(=O)N1CCN(c2cccc(-c3cnc4[nH]cc(C#Cc5cccnc5)c4c3Cl)c2)C(=O)C1 [Example 30, 1-(3-(4-chloro-3-(pyridin-3-ylethynyl)-1H-pyrrolo[2,3-b]pyridin-5-yl)phenyl)-4-(dimethylglycyl)piperazin-2-one]	7.00 to 8.00	5.52 to 6.52

The next lines start with the values.

pIC50 (HPK1)	pIC50 [1]	SMILES
6.00 to 7.00	< 5.00	COC(=O)c1c[nH]c2ncc(-c3cccc(N4CCNCC4=O)c3)c(Cl)c12 [Example 2, Methyl 4-chloro-5-(3-(2-oxopiperazin-1-yl)phenyl)-1H-pyrrolo[2,3-b]pyridine-3-carboxylate]
7.00 to 8.00	5.52 to 6.52	O=C1CNCCN1c1cccc(-c2cnc3[nH]cc(C#Cc4cccnc4)c3c2Cl)c1 [Example 6, 1-(3-(4-chloro-3-(pyridin-3-ylethynyl)-1H-pyrrolo[2,3-b]pyridin-5-yl)phenyl)piperazin-2-one]
< 6.00	< 5.00	CN(C)CC#Cc1c[nH]c2ncc(-c3cccc(N4CCNCC4=O)c3)c(Cl)c12 [Example 8, 1-(3-(4-chloro-3-(3-(dimethylamino)prop-1-yn-1-yl)-1H-pyrrolo[2,3-b]pyridin-5-yl)phenyl)piperazin-2-one]
7.00 to 8.00	5.00 to 5.52	O=C1CNCCN1c1nc(-c2cnc3[nH]cc(C4CC4)c3c2Cl)cs1 [Example 11, 1-(4-(4-chloro-3-cyclopropyl-1H-pyrrolo[2,3-b]pyridin-5-yl)thiazol-2-yl)piperazin-2-one]
7.00 to 8.00	5.00 to 5.52	Cc1ccc(C#Cc2c[nH]c3ncc(-c4cccc(N5CCNCC5=O)c4)c(Cl)c23)cn1 [Example 13, 1-(3-(4-chloro-3-((6-methylpyridin-3-yl)ethynyl)-1H-pyrrolo[2,3-b]pyridin-5-yl)phenyl)piperazin-2-one]
7.00 to 8.00	< 5.00	Cn1cnc(C#Cc2c[nH]c3ncc(-c4cccc(N5CCNCC5=O)c4)c(Cl)c23)n1 [Example 14, 1-(3-(4-chloro-3-((1-methyl-1H-1,2,4-triazol-3-yl)ethynyl)-1H-pyrrolo[2,3-b]pyridin-5-yl)phenyl)piperazin-2-one]
≥ 8.00	≥ 6.52	O=C1CNCCN1c1cccc(-c2cnc3[nH]cc(C4CC4)c3c2Cl)n1 [Example 15, 1-(6-(4-chloro-3-cyclopropyl-1H-pyrrolo[2,3-b]pyridin-5-yl)pyridin-2-yl)piperazin-2-one]
7.00 to 8.00	5.52 to 6.52	O=C1CNCCN1c1cccc(-c2cnc3[nH]cc(CC(F)F)c3c2Cl)n1 [Example 16, 1-(6-(4-chloro-3-(2,2-difluoroethyl)-1H-pyrrolo[2,3-b]pyridin-5-yl)pyridin-2-yl)piperazin-2-one]
≥ 8.00	5.52 to 6.52	CCc1c[nH]c2ncc(-c3cccc(N4CCC[C@H](CO)C4=O)c3)c(Cl)c12 [Example 23, (R)-1-(3-(4-chloro-3-ethyl-1H-pyrrolo[2,3-b]pyridin-5-yl)phenyl)-3-(hydroxymethyl)piperidin-2-one]
≥ 8.00	5.52 to 6.52	COCC(=O)N1CCN(c2cccc(-c3cnc4[nH]cc(C#Cc5cccnc5)c4c3Cl)c2)C(=O)C1 [Example 29, 1-(3-(4-chloro-3-(pyridin-3-ylethynyl)-1H-pyrrolo[2,3-b]pyridin-5-yl)phenyl)-4-(2-methoxyacetyl)piperazin-2-one]
